Source: PubChem BioAssay AID248 (DTP/NCI, 2004)
“And” between values parts separate entries of the source, which are not always exact repeats. Equal entries are not always repeated. Inconclusive results and toxic doses are left out. Rule as the data show it: active = T/C of 150% or more; inactive = T/C below 125%.

Tested on: L1210 leukemia ip in BDF1 mice, survival T/C
Test: NCI In Vivo Anticancer Drug Screen. Data for tumor model L1210 Leukemia (intraperitoneal) in B6D2F1 (BDF1) mice
Conditions: endpoint: mean survival time, higher = longer survival
Method in brief: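 Transplantable tumor model; survival measured in treated vs vehicle control mice. Value = treated/control.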

[1] = dose: 100.0 mg/kg/injection, schedule: Q01DX009 (ip), vehicle: saline with Tween-80
[2] = dose: 200.0 mg/kg/injection, schedule: Q01DX009 (ip), vehicle: saline with Tween-80
[3] = dose: 100.0 mg/kg/injection, schedule: Q01DX001 (ip), vehicle: saline
[4] = dose: 200.0 mg/kg/injection, schedule: Q01DX001 (ip), vehicle: saline
[5] = dose: 400.0 mg/kg/injection, schedule: Q01DX001 (ip), vehicle: saline
[6] = dose: 100.0 mg/kg/injection, schedule: Q01DX009 (ip), vehicle: saline
[7] = dose: 200.0 mg/kg/injection, schedule: Q01DX009 (ip), vehicle: saline
[8] = dose: 400.0 mg/kg/injection, schedule: Q01DX009 (ip), vehicle: saline
[9] = dose: 50.0 mg/kg/injection, schedule: Q01DX001 (ip), vehicle: saline
[10] = dose: 100.0 mg/kg/injection, schedule: Q01DX009 (ip), vehicle: gum acacia
[11] = dose: 100.0 mg/kg/injection, schedule: Q04DX003 (ip), vehicle: gum acacia
[12] = dose: 200.0 mg/kg/injection, schedule: Q01DX009 (ip), vehicle: gum acacia
[13] = dose: 200.0 mg/kg/injection, schedule: Q04DX003 (ip), vehicle: gum acacia
[14] = dose: 400.0 mg/kg/injection, schedule: Q04DX003 (ip), vehicle: gum acacia

Measured: T/C

N/C(=N\O)c1cccnc1
inactive: dose: 25.0 mg/kg/injection, schedule: Q01DX009 (ip), vehicle: water 98 % of control | dose: 50.0 mg/kg/injection, schedule: Q01DX009 (ip), vehicle: water 106 % of control | [1] 100 % of control | dose: 100.0 mg/kg/injection, schedule: Q01DX009 (ip), vehicle: water 101 % of control | dose: 100.0 mg/kg/injection, schedule: Q04DX003 (ip), vehicle: water 100 % of control | [2] 96 % of control | dose: 200.0 mg/kg/injection, schedule: Q01DX009 (ip), vehicle: water 97 % of control | dose: 200.0 mg/kg/injection, schedule: Q04DX003 (ip), vehicle: water 107 % of control

O=C(Nc1cc(C2=NCCN2)cc(C2=NCCN2)c1)c1ccc(C(=O)Nc2cc(C3=NCCN3)cc(C3=NCCN3)c2)cc1
inactive: dose: 0.37 mg/kg/injection, schedule: Q01DX Z (ip), vehicle: methylcellulose (MC) 94 % of control | dose: 0.75 mg/kg/injection, schedule: Q01DX Z (ip), vehicle: methylcellulose (MC) 111 % of control | dose: 1.5 mg/kg/injection, schedule: Q01DX Z (ip), vehicle: methylcellulose (MC) 101 % of control | dose: 2.0 mg/kg/injection, schedule: Q01DX Z (ip), vehicle: carboxymethylcellulose (CMC) 108 % of control | dose: 3.0 mg/kg/injection, schedule: Q01DX Z (ip), vehicle: methylcellulose (MC) 95 % of control | dose: 4.0 mg/kg/injection, schedule: Q01DX Z (ip), vehicle: carboxymethylcellulose (CMC) 92 % of control | dose: 15.0 mg/kg/injection, schedule: Q01DX Z (ip), vehicle: carboxymethylcellulose (CMC) 92 % of control

Cn1c(=O)cc(CNc2ccc(-c3ccccc3)cc2)c2ccccc21
inactive: [3] 92 % of control | [4] 90 % of control | [5] 88 % of control

COC(=O)c1cccc(O)c1
inactive: dose: 100.0 mg/kg/injection, schedule: Q01DX001 (ip), vehicle: saline with Tween-80 94 % of control | dose: 200.0 mg/kg/injection, schedule: Q01DX001 (ip), vehicle: saline with Tween-80 91 % of control | dose: 400.0 mg/kg/injection, schedule: Q01DX001 (ip), vehicle: saline with Tween-80 98 % of control

Cc1cc(C(C)(C)C)ccc1S(=O)(=O)/C=C/c1ccccc1
inactive: dose: 100.0 mg/kg/injection, schedule: Q01DX001 (ip), vehicle: acetone 95 % of control | [6] 93 % of control | dose: 200.0 mg/kg/injection, schedule: Q01DX001 (ip), vehicle: acetone 97 % of control | [7] 88 % of control | dose: 400.0 mg/kg/injection, schedule: Q01DX001 (ip), vehicle: acetone 92 % of control | [8] 88 % of control

O=C(N1CCCCC1)N1CCCCC1
inactive: dose: 100.0 mg/kg/injection, schedule: Q04DX002 (ip), vehicle: other 105 % of control | dose: 200.0 mg/kg/injection, schedule: Q04DX002 (ip), vehicle: other 91 % of control | dose: 400.0 mg/kg/injection, schedule: Q04DX002 (ip), vehicle: other 88 % of control

COC(=O)C1(C)CCCC2(C)C1CCC13C=C(C(C)C)C(CC1C(=O)O)CC23 (stereo not given)
inactive: [1] 95 % of control | [2] 93 % of control | dose: 400.0 mg/kg/injection, schedule: Q01DX009 (ip), vehicle: saline with Tween-80 87 % of control

CC(C)=NNCCO
inactive: dose: 12.5 mg/kg/injection, schedule: Q01DX001 (ip), vehicle: saline 103 % of control | dose: 25.0 mg/kg/injection, schedule: Q01DX001 (ip), vehicle: saline 103 % of control | [9] 100 % of control

Cc1ccc(SC(=O)CCl)cc1
inactive: dose: 66.0 mg/kg/injection, schedule: Q01DX009 (ip), vehicle: gum acacia 93 % of control | [10] 90 % of control | [11] 102 % of control | dose: 150.0 mg/kg/injection, schedule: Q01DX009 (ip), vehicle: gum acacia 90 % of control | [12] 97 % of control | [13] 96 % of control | [14] 94 % of control

Oc1ccccc1C=NCCCN=Cc1ccccc1O
inactive: [10] 104 % of control | [11] 98 % of control | [12] 101 % of control | [13] 95 % of control | dose: 400.0 mg/kg/injection, schedule: Q01DX009 (ip), vehicle: gum acacia 101 % of control | [14] 98 % of control

COc1ccc(CCN=C(C)C2C3CC4CC(C3)CC2C4)cc1OC (stereo not given)
inactive: dose: 100.0 mg/kg/injection, schedule: Q04DX003 (ip), vehicle: saline 90 % of control | dose: 200.0 mg/kg/injection, schedule: Q04DX003 (ip), vehicle: saline 97 % of control | dose: 400.0 mg/kg/injection, schedule: Q04DX003 (ip), vehicle: saline 90 % of control

C=CCN(CC=C)C(=O)CCN1CC1
inactive: dose: 1.25 mg/kg/injection, schedule: Q01DX Z (ip), vehicle: saline 96 % of control | dose: 2.5 mg/kg/injection, schedule: Q01DX Z (ip), vehicle: saline 96 % of control | dose: 5.0 mg/kg/injection, schedule: Q01DX Z (ip), vehicle: saline 100 % of control | dose: 10.0 mg/kg/injection, schedule: Q01DX Z (ip), vehicle: saline 98 % of control and 111 % of control | dose: 10.0 mg/kg/injection, schedule: Q01DX Z (oral), vehicle: saline 108 % of control | dose: 20.0 mg/kg/injection, schedule: Q01DX001 (ip), vehicle: saline 103 % of control | dose: 20.0 mg/kg/injection, schedule: Q01DX Z (ip), vehicle: saline 96 % of control | dose: 20.0 mg/kg/injection, schedule: Q01DX Z (oral), vehicle: saline 117 % of control | dose: 40.0 mg/kg/injection, schedule: Q01DX001 (ip), vehicle: saline 115 % of control | dose: 40.0 mg/kg/injection, schedule: Q01DX Z (oral), vehicle: saline 86 % of control

CC(C)(/C=N/NC(N)=O)c1ccccc1
inactive: dose: 50.0 mg/kg/injection, schedule: Q01DX001 (ip), vehicle: Klucel (hydroxypropylcellulose) (HPC) 96 % of control | dose: 100.0 mg/kg/injection, schedule: Q01DX001 (ip), vehicle: Klucel (hydroxypropylcellulose) (HPC) 102 % of control | dose: 200.0 mg/kg/injection, schedule: Q01DX001 (ip), vehicle: Klucel (hydroxypropylcellulose) (HPC) 96 % of control

O=c1c(O)c(-c2ccc(-c3oc4ccccc4c(=O)c3O)cc2)oc2ccccc12
inactive: [9] 97 % of control | [3] 89 % of control | [4] 91 % of control | [5] 101 % of control

CC(CC(O)c1ccccc1)c1ccccc1 (stereo not given)
inactive: [6] 102 % of control | dose: 100.0 mg/kg/injection, schedule: Q04DX003 (ip), vehicle: Klucel (hydroxypropylcellulose) (HPC) 98 % of control | [7] 97 % of control | dose: 200.0 mg/kg/injection, schedule: Q04DX003 (ip), vehicle: Klucel (hydroxypropylcellulose) (HPC) 104 % of control | [8] 98 % of control | dose: 400.0 mg/kg/injection, schedule: Q04DX003 (ip), vehicle: Klucel (hydroxypropylcellulose) (HPC) 104 % of control
